Data as given in the supplement of paper PMC10307832.

Assays:
Test in all cases: relative viability (nuclei count vs DMSO), 5 days (fraction); higher = more cells survive
ChaGo-K-1 = system: ChaGo-K-1
Outline: (§1)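 Nuclei were stained with Hoechst during a one-step fixation (final 0.05% Triton X-100, 1% formaldehyde, 1 ug/ml Hoechst) carried out 5 days after dosing, then counted on 4× images. The cells, lung cancer lines in 1536-well plates, had been dosed by pin tool the day after seeding with one drug alone or a fixed anchor-drug dose plus five library-drug doses (not always all listed) in √10 steps. Relative viability is the nuclei count in treated wells divided by that in vehicle wells, and each value is the median of duplicate plates.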

EMC-BAC-2 = system: EMC-BAC-2
Outline: as §1

EPLC-272H = system: EPLC-272H
Outline: as §1

HCC-78 = system: HCC-78
Outline: as §1

HCC-827 = system: HCC-827
Outline: as §1

LCLC-103H = system: LCLC-103H
Outline: as §1

LK-2 = system: LK-2
Outline: as §1

LOU-NH91 = system: LOU-NH91
Outline: as §1

LU99A = system: LU99A
Outline: as §1

LXF-289 = system: LXF-289
Outline: as §1

NCI-H1563 = system: NCI-H1563
Outline: as §1

NCI-H1666 = system: NCI-H1666
Outline: as §1

NCI-H1975 = system: NCI-H1975
Outline: as §1

NCI-H2085 = system: NCI-H2085
Outline: as §1

NCI-H2126 = system: NCI-H2126
Outline: as §1

NCI-H23 = system: NCI-H23
Outline: as §1

NCI-H2405 = system: NCI-H2405
Outline: as §1

NCI-H3122 = system: NCI-H3122
Outline: as §1

NCI-H322M = system: NCI-H322M
Outline: as §1

RERF-LC-KJ = system: RERF-LC-KJ
Outline: as §1

SK-LU-1 = system: SK-LU-1
Outline: as §1

SW 1573 = system: SW 1573
Outline: as §1

SW 900 = system: SW 900
Outline: as §1

Structure (SMILES): NC(=O)Nc1cc(-c2cccc(F)c2)sc1C(=O)N[C@H]1CCCNC1 [AZD7762] + COc1cccc2cc(-c3nc([C@H]4CC[C@H](C(=O)O)CC4)n4ncnc(N)c34)[nH]c12 [OSI-027] (partner 0.5 µM)
- relative viability (ChaGo-K-1; first compound 0.01 µM): 0.622
- relative viability (ChaGo-K-1; first compound 0.03162 µM): 0.631
- relative viability (ChaGo-K-1; first compound 0.1 µM): 0.56
- relative viability (ChaGo-K-1; first compound 0.3162 µM): 0.643
- relative viability (ChaGo-K-1; first compound 1 µM): 0.554
- relative viability (EMC-BAC-2; first compound 0.01 µM): 0.349
- relative viability (EMC-BAC-2; first compound 0.03162 µM): 0.435
- relative viability (EMC-BAC-2; first compound 0.1 µM): 0.465
- relative viability (EMC-BAC-2; first compound 0.3162 µM): 0.345
- relative viability (EMC-BAC-2; first compound 1 µM): 0.405
- relative viability (EPLC-272H; first compound 0.01 µM): 0.299
- relative viability (EPLC-272H; first compound 0.03162 µM): 0.332
- relative viability (EPLC-272H; first compound 0.1 µM): 0.271
- relative viability (EPLC-272H; first compound 0.3162 µM): 0.27
- relative viability (EPLC-272H; first compound 1 µM): 0.115
- relative viability (HCC-78; first compound 0.01 µM): 0.43
- relative viability (HCC-78; first compound 0.03162 µM): 0.452
- relative viability (HCC-78; first compound 0.1 µM): 0.453
- relative viability (HCC-78; first compound 0.3162 µM): 0.357
- relative viability (HCC-78; first compound 1 µM): 0.346
- relative viability (HCC-827; first compound 0.01 µM): 0.787
- relative viability (HCC-827; first compound 0.03162 µM): 0.802
- relative viability (HCC-827; first compound 0.1 µM): 0.863
- relative viability (HCC-827; first compound 0.3162 µM): 0.875
- relative viability (HCC-827; first compound 1 µM): 0.537
- relative viability (LCLC-103H; first compound 0.01 µM): 0.451
- relative viability (LCLC-103H; first compound 0.03162 µM): 0.471
- relative viability (LCLC-103H; first compound 0.1 µM): 0.427
- relative viability (LCLC-103H; first compound 0.3162 µM): 0.392
- relative viability (LCLC-103H; first compound 1 µM): 0.341
- relative viability (LK-2; first compound 0.01 µM): 0.192
- relative viability (LK-2; first compound 0.03162 µM): 0.228
- relative viability (LK-2; first compound 0.1 µM): 0.213
- relative viability (LK-2; first compound 0.3162 µM): 0.186
- relative viability (LK-2; first compound 1 µM): 0.165
- relative viability (LOU-NH91; first compound 0.01 µM): 0.735
- relative viability (LOU-NH91; first compound 0.03162 µM): 0.749
- relative viability (LOU-NH91; first compound 0.1 µM): 0.692
- relative viability (LOU-NH91; first compound 0.3162 µM): 0.638
- relative viability (LOU-NH91; first compound 1 µM): 0.554
- relative viability (LU99A; first compound 0.01 µM): 0.323
- relative viability (LU99A; first compound 0.03162 µM): 0.365
- relative viability (LU99A; first compound 0.1 µM): 0.352
- relative viability (LU99A; first compound 0.3162 µM): 0.326
- relative viability (LU99A; first compound 1 µM): 0.217
- relative viability (LXF-289; first compound 0.01 µM): 0.61
- relative viability (LXF-289; first compound 0.03162 µM): 0.835
- relative viability (LXF-289; first compound 0.1 µM): 0.886
- relative viability (LXF-289; first compound 0.3162 µM): 0.864
- relative viability (LXF-289; first compound 1 µM): 0.971
- relative viability (NCI-H1563; first compound 0.01 µM): 0.792
- relative viability (NCI-H1563; first compound 0.03162 µM): 0.781
- relative viability (NCI-H1563; first compound 0.1 µM): 0.748
- relative viability (NCI-H1563; first compound 0.3162 µM): 0.804
- relative viability (NCI-H1563; first compound 1 µM): 0.771
- relative viability (NCI-H1666; first compound 0.01 µM): 0.981
- relative viability (NCI-H1666; first compound 0.03162 µM): 0.921
- relative viability (NCI-H1666; first compound 0.1 µM): 1.03
- relative viability (NCI-H1666; first compound 0.3162 µM): 0.858
- relative viability (NCI-H1666; first compound 1 µM): 0.771
- relative viability (NCI-H1975; first compound 0.01 µM): 0.687
- relative viability (NCI-H1975; first compound 0.03162 µM): 0.73
- relative viability (NCI-H1975; first compound 0.1 µM): 0.637
- relative viability (NCI-H1975; first compound 0.3162 µM): 0.615
- relative viability (NCI-H1975; first compound 1 µM): 0.397
- relative viability (NCI-H2085; first compound 0.01 µM): 0.603
- relative viability (NCI-H2085; first compound 0.03162 µM): 0.871
- relative viability (NCI-H2085; first compound 0.1 µM): 0.836
- relative viability (NCI-H2085; first compound 0.3162 µM): 0.765
- relative viability (NCI-H2085; first compound 1 µM): 0.554
- relative viability (NCI-H2126; first compound 0.01 µM): 0.735
- relative viability (NCI-H2126; first compound 0.03162 µM): 0.772
- relative viability (NCI-H2126; first compound 0.1 µM): 0.783
- relative viability (NCI-H2126; first compound 0.3162 µM): 0.871
- relative viability (NCI-H2126; first compound 1 µM): 0.807
- relative viability (NCI-H23; first compound 0.01 µM): 0.556
- relative viability (NCI-H23; first compound 0.03162 µM): 0.567
- relative viability (NCI-H23; first compound 0.1 µM): 0.652
- relative viability (NCI-H23; first compound 0.3162 µM): 0.566
- relative viability (NCI-H23; first compound 1 µM): 0.288
- relative viability (NCI-H2405; first compound 0.01 µM): 0.608
- relative viability (NCI-H2405; first compound 0.03162 µM): 0.676
- relative viability (NCI-H2405; first compound 0.1 µM): 0.623
- relative viability (NCI-H2405; first compound 0.3162 µM): 0.664
- relative viability (NCI-H2405; first compound 1 µM): 0.455
- relative viability (NCI-H3122; first compound 0.01 µM): 1.03
- relative viability (NCI-H3122; first compound 0.03162 µM): 1.1
- relative viability (NCI-H3122; first compound 0.1 µM): 0.995
- relative viability (NCI-H3122; first compound 0.3162 µM): 0.473
- relative viability (NCI-H3122; first compound 1 µM): 0.259
- relative viability (NCI-H322M; first compound 0.01 µM): 0.555
- relative viability (NCI-H322M; first compound 0.03162 µM): 0.581
- relative viability (NCI-H322M; first compound 0.1 µM): 0.562
- relative viability (NCI-H322M; first compound 0.3162 µM): 0.254
- relative viability (NCI-H322M; first compound 1 µM): 0.255
- relative viability (RERF-LC-KJ; first compound 0.01 µM): 0.587
- relative viability (RERF-LC-KJ; first compound 0.03162 µM): 0.668
- relative viability (RERF-LC-KJ; first compound 0.1 µM): 0.77
- relative viability (RERF-LC-KJ; first compound 0.3162 µM): 0.666
- relative viability (RERF-LC-KJ; first compound 1 µM): 0.499
- relative viability (SK-LU-1; first compound 0.01 µM): 0.35
- relative viability (SK-LU-1; first compound 0.03162 µM): 0.384
- relative viability (SK-LU-1; first compound 0.1 µM): 0.203
- relative viability (SK-LU-1; first compound 0.3162 µM): 0.136
- relative viability (SK-LU-1; first compound 1 µM): 0.157
- relative viability (SW 1573; first compound 0.01 µM): 0.69
- relative viability (SW 1573; first compound 0.03162 µM): 0.65
- relative viability (SW 1573; first compound 0.1 µM): 0.742
- relative viability (SW 1573; first compound 0.3162 µM): 0.422
- relative viability (SW 1573; first compound 1 µM): 0.176
- relative viability (SW 900; first compound 0.01 µM): 0.609
- relative viability (SW 900; first compound 0.03162 µM): 0.623
- relative viability (SW 900; first compound 0.1 µM): 0.539
- relative viability (SW 900; first compound 0.3162 µM): 0.501
- relative viability (SW 900; first compound 1 µM): 0.263
